Experiments:
[1] = mouse, in vivo
From the text: MRL/lpr mice were first randomized, initial bleeds collected, and body weights recorded for baseline measurements (FIG. 1). All mice were individually ear tagged and were monitored throughout the entire experiment (e.g., “Group#-Cage letter-Mouse#”, so “3B5”=Group 3 (G3), cage B, mouse#5). Mice were age-matched and treatment started at 6-8 weeks of age. Cheek bleeds and urine collection continued weekly throughout the experiment. Mice were individually tracked for several parameters including cytokine and ANA levels, proteinuria, body mass, lymphomegaly, general health, and mortality. All parameters were evaluated bi-monthly except mortality which was monitored daily. All groups consisted of a minimum of at least 10-12 mice per group. Ex vivo experiments included flow cytometry analyses for plasma cells, serum complement C3 and ANA levels; urine protein and leukocytes, serum cytokine profiling, renal histo pathology, and determination of compound levels (pharmacokinetics (PK)) in the spleen, kidney and plasma. Mice were tracked on an individual basis. For all data, mice were grouped into populations and data graphed as mean±SEM. Bi-monthly observations and data collected were recorded for each group, except mortality which was performed daily. End-stage readouts were analyzed as described in the MATERIALS AND METHODS section (above) and in FIG. 1. […]

IL-17A = test: Serum IL-17A in NZM mice; type: in vivo, mouse
Protocol: (§1) For the processing of serum samples for cytokine analysis, frozen plasma at −80° C. was thawed on ice, vortexed, and centrifuged for 10 minutes to remove debris and aggregates. A total of 25-50 μL of serum was used for Luminex® assays following the manufacturer's instructions. Ten different mouse cytokines were measured using the mouse cytokine 10-plex bead kit (Invitrogen, Carlsbad, Calif., no. LMC0001). Briefly, filter plates (Millipore, Billerica, Mass., no. MAIPSWU10), were pre-wet with 200 μL of wash solution (kit component) and 25 μL of beads were added per well. […]
(§2) Age mated, female, NZM or NZW/LacJ, mice were matured for the study of lupus nephritis for a total of 7 months or 210 days at which time urine was collected for proteinuria detection. Mice with 0.5-1.0 mg/ml of urine protein as determined by an optical density-based total protein precipitation assay and cross-checked for 30-300 mg/dl of protein as determined by a stick assay were considered proteinuria positive and selected for study entry. […] End-stage lupus nephritis was evaluated by histopathology and scored by a board certified pathologist for the assessment of total renal damage in diseased animals using the scoring method described by Smith et al (Smith, Dong et al. 2007). […]

IL-6 = test: Serum IL-6 in NZM mice; type: in vivo, mouse
Protocol: as §1, §2

CXCL9/MIG = test: Serum CXCL9/MIG in NZM mice; type: in vivo, mouse
Protocol: as §1, §2

IL-13 = test: Serum IL-13 in NZM mice; type: in vivo, mouse
Protocol: as §1, §2

NZM mice = test: Splenomegaly (EOS spleen mass) in NZM mice; type: in vivo, mouse
Protocol: Age mated, female, NZM or NZW/LacJ, mice were matured for the study of lupus nephritis for a total of 7 months or 210 days at which time urine was collected for proteinuria detection. Mice with 0.5-1.0 mg/ml of urine protein as determined by an optical density-based total protein precipitation assay and cross-checked for 30-300 mg/dl of protein as determined by a stick assay were considered proteinuria positive and selected for study entry. Groups were normalized to contain a Gaussian distribution of proteinuria positive animals (i.e., ⅓ low proteinuria, ⅓ medium, ⅓ high) then randomized between groups before ear marking and taking baseline measures including urine and serum collections. A total of five mice from the total population were randomly selected for baseline kidney histology evaluation. Treatments and tests for each group are as described in FIG. 12. Briefly, with a minimum of 10 mice per group, COMPOUND A was administered at 100 mg/kg or 55 mg/kg, both twice a day and orally. […] Vehicle included 3% DMSO, 10% Solutol and 87% PBS. […] End-stage lupus nephritis was evaluated by histopathology and scored by a board certified pathologist for the assessment of total renal damage in diseased animals using the scoring method described by Smith et al (Smith, Dong et al. 2007). […] Day-98 or “end of treatment/study” represents 310 days of age for the NZM animals.

CN1CCN(c2cccc(Nc3nc4c(-c5ccc(S(C)(=O)=O)cc5)cccn4n3)c2)CC1 [COMPOUND A, [8-(4-methanesulfonyl-phenyl)-[1,2,4]triazolo[1,5-a]pyridin-2-yl]-[3-(4-methyl-piperazin-1-yl)-phenyl]-amine]
overt toxicity [1]: overt toxicity was not observed
serum IL-17A decrease compared to vehicle (IL-17A; 55 mg/kg): 79.1%
serum IL-17A decrease compared to vehicle (IL-17A; 100 mg/kg): 86.2%
serum IL-6 decrease compared to vehicle (IL-6; 55 mg/kg): 98.2%
serum IL-6 decrease compared to vehicle (IL-6; 100 mg/kg): 97.0%
serum CXCL9/MIG decrease compared to vehicle (CXCL9/MIG; 55 mg/kg): 83.7%
serum CXCL9/MIG decrease compared to vehicle (CXCL9/MIG; 100 mg/kg): 85.7%
serum IL-13 decrease compared to vehicle (IL-13; 55 mg/kg): 86.2%
serum IL-13 decrease compared to vehicle (IL-13; 100 mg/kg): 79.5%
total EOS spleen mass decrease compared to vehicle (NZM mice; 55 mg/kg): 71.8%
total EOS spleen mass decrease compared to vehicle (NZM mice; 100 mg/kg): 73.5%
